Reference: patent US12435044B2, “Pyridazinone herbicides and pyridazinone intermediates used to prepare a herbicide” (FMC Corporation, priority 2018, dated 2025)

Legend:
Assay type in all cases: in vivo
[1] = test system: foxtail, green (Setaria viridis); assay: Test A pre-/postemergence greenhouse test
Description: (§1) Seeds of plant species selected from barnyardgrass (Echinochloa crus-galli), kochia (Kochia scoparia), ragweed (common ragweed, Ambrosia elatior), ryegrass, Italian (Lolium multiflorum), foxtail, giant (Setaria faberii), foxtail, green (Setaria viridis) and pigweed (Amaranthus retroflexus) were planted into a blend of loam soil and sand and treated preemergence with a directed soil spray using test chemicals formulated in a non-phytotoxic solvent mixture which included a surfactant.
(§2) At the same time, plants selected from these weed species and also wheat (Triticum aestivum), corn (Zea mays), blackgrass (Alopecurus myosuroides) and galium (catchweed bedstraw, Galium aparine) were planted in pots containing the same blend of loam soil and sand and treated with postemergence applications of test chemicals formulated in the same manner. Plants ranged in height from 2 to 10 cm and were in the one- to two-leaf stage for the postemergence treatment. Treated plants and untreated controls were maintained in a greenhouse for approximately 10 d, after which time all treated plants were compared to untreated controls and visually evaluated for injury. Plant response ratings, summarized in Table A, are based on a 0 to 100 scale where 0 is no effect and 100 is complete control. A dash (-) response means no test result.

[2] = test system: foxtail, giant (Setaria faberii); assay: Test A pre-/postemergence greenhouse test
Description: as §1, §2

[3] = test system: redstem (purple redstem, Ammannia coccinea); assay: Test F flooded paddy test; conditions: Flood, after 21 d
Description: (§3) Three plastic pots (ca. 16-cm diameter) per rate were partially filled with sterilized Tama silt loam soil comprising a 35:50:15 ratio of sand, silt and clay and 2.6% organic matter. Separate plantings for each of the three pots were as follows. Seeds from the U.S. of monochoria (Monochoria vaginalis), sedge, umbrella (small-flower umbrella sedge, Cyperus difformis) and redstem (purple redstem, Ammannia coccinea), were planted into one 16-cm pot for each rate. Seeds from the U.S. of rice flatsedge (Cyperus iria), sprangletop, Brdd. (bearded sprangletop, Leptochloa fascicularis), one stand of 9 or 10 water seeded rice seedlings (Rice, W. S. Jap, Oryza sativa cv. ‘Japonica-M202’ or Rice, W. S. Ind, ‘Indica’), and two stands of 3 or 4 transplanted rice seedlings (Oryza sativa cv. ‘Japonica-M202’) were planted into one 16-cm pot for each rate. Seeds from the U.S. of barnyardgrass (Echinochloa crus-galli), and late watergrass (Echinochloa oryzicola) were planted into one 16-cm pot for each rate.
(§4) Plantings were sequential so that crop and weed species were at the 2.0 to 2.5-leaf stage at time of treatment.
(§5) Potted plants were grown in a greenhouse with day/night temperature settings of 30/27° C., and supplemental balanced lighting was provided to maintain a 16-hour photoperiod. Test pots were maintained in the greenhouse until test completion.
(§6) At time of treatment, test pots were flooded to 3 cm above the soil surface, treated by application of test compounds directly to the paddy water, and then maintained at that water depth for the duration of the test. Effects of treatments on rice and weeds were visually evaluated by comparison to untreated controls after 21 d. Plant response ratings, summarized in Table F, are based on a scale of 0 to 100 where 0 is no effect and 100 is complete control. A dash (-) response means no test result.

[4] = test system: sedge, umbrella (small-flower umbrella sedge, Cyperus difformis); assay: Test F flooded paddy test; conditions: Flood, after 21 d
Description: as §3, §4, §5, §6

[5] = test system: Canada thistle (Cirsium arvense); assay: Test C postemergence greenhouse test; conditions: scale 0 to 100
Description: (§7) Seeds of plant species selected from blackgrass (Alopecurus myosuroides), ryegrass, Italian (Lolium multiflorum), wheat, winter (winter wheat, Triticum aestivum), galium (catchweed bedstraw, Galium aparine), corn (Zea mays), crabgrass, large (Digitaria sanguinalis), foxtail, giant (Setaria faberii), johnsongrass (Sorghum halepense), lambsquarters (Chenopodium album), morningglory (Ipomoea coccinea), nutsedge, yellow (Cyperus esculentus), pigweed (Amaranthus retroflexus), ragweed (common ragweed, Ambrosia elatior), soybean (Glycine max), barnyardgrass (Echinochloa crus-galli), oilseed rape (Brassica napus), waterhemp (common waterhemp, Amaranthus rudis), pigweed, palmer (Amaranthus palmeri), kochia (Kochia scoparia), oat, wild (Avena fatua), surinam grass (Brachiaria decumbens), windgrass (Apera spica-venti), poinsettia, wild (Euphorbia heterophylla) and velvetleaf (Abutilon theophrasti) were planted into a silt loam soil and treated preemergence with test chemicals formulated in a non-phytotoxic solvent mixture which included a surfactant.
(§8) At the same time, plants selected from these crop and weed species and also chickweed (common chickweed, Stellaria media), buckwheat, wild (Polygonum convolvulus), mustard, wild (Sinapis arvensis), field poppy (Papaver rhoeas), field violet (Viola arvensis), nightshade (eastern black nightshade, Solanum ptycanthum), speedwell (bird's-eye speedwell, Veronica persica), horseweed (Conyza canadensis), cutleaf geranium (Geranium dissectum), and Canada thistle (Cirsium arvense) were planted in pots containing Redi-Earth® planting medium (Scotts Company, 14111 Scottslawn Road, Marysville, Ohio 43041) comprising spaghnum peat moss, vermiculite, wetting agent and starter nutrients and treated with postemergence applications of test chemicals formulated in the same manner. Plants ranged in height from 2 to 18 cm (1- to 4-leaf stage) for postemergence treatments. Treated plants and controls were maintained in a greenhouse for 13 to 21 d, after which time all species were compared to controls and visually evaluated. Plant response ratings, summarized in Table C-1 (postemergence) and C-2 (preemergence), are based on a scale of 0 to 100 where 0 is no effect and 100 is complete control. A dash (-) response means no test result.

[6] = test system: buckwheat, wild (Polygonum convolvulus); assay: Test C postemergence greenhouse test; conditions: scale 0 to 100
Description: as §7, §8

[7] = test system: cutleaf geranium (Geranium dissectum); assay: Test C postemergence greenhouse test; conditions: scale 0 to 100
Description: as §7, §8

[8] = test system: field violet (Viola arvensis); assay: Test C postemergence greenhouse test; conditions: scale 0 to 100
Description: as §7, §8

[9] = test system: mustard, wild (Sinapis arvensis); assay: Test C postemergence greenhouse test; conditions: scale 0 to 100
Description: as §7, §8

[10] = test system: speedwell (bird's-eye speedwell, Veronica persica); assay: Test C postemergence greenhouse test; conditions: scale 0 to 100
Description: as §7, §8

Structure (SMILES)	Plant response rating (0 to 100 scale) ([1]; Postemergence, 31 g ai/ha)	Plant response rating (0 to 100 scale) ([1]; Postemergence, 125 g ai/ha)	Plant response rating (0 to 100 scale) ([1]; Preemergence, 31 g ai/ha)	Plant response rating (0 to 100 scale) ([1]; Preemergence, 125 g ai/ha)	Plant response rating (0 to 100 scale) ([2]; Postemergence, 31 g ai/ha)	Plant response rating (0 to 100 scale) ([2]; Postemergence, 125 g ai/ha)	Plant response rating (0 to 100 scale) ([2]; Preemergence, 31 g ai/ha)	Plant response rating (0 to 100 scale) ([2]; Preemergence, 125 g ai/ha)	Plant response rating, Canada Thistle ([5]; 16 g ai/ha)	Plant response rating, Canada Thistle ([5]; 31 g ai/ha)	Plant response rating, Canada Thistle ([5]; 62 g ai/ha)	Plant response rating, Canada Thistle ([5]; 125 g ai/ha)	Plant response rating, Buckwheat, Wild ([6]; 16 g ai/ha)	Plant response rating, Buckwheat, Wild ([6]; 31 g ai/ha)	Plant response rating, Buckwheat, Wild ([6]; 62 g ai/ha)	Plant response rating, Buckwheat, Wild ([6]; 125 g ai/ha)	Plant response rating, Cutleaf Geranium ([7]; 16 g ai/ha)	Plant response rating, Cutleaf Geranium ([7]; 31 g ai/ha)	Plant response rating, Cutleaf Geranium ([7]; 62 g ai/ha)	Plant response rating, Cutleaf Geranium ([7]; 125 g ai/ha)	also measured
Cc1ccc2ccc(F)cc2c1-c1c(O)c(Cl)nn(C)c1=O [Cpd. No. 21]	90	100	70	100	–	–	–	–	–	–	–	–	–	–	–	–	–	–	–	–	–
Cc1ccc2ccc(C)c(-c3c(O)c(Cl)nn(C)c3=O)c2c1 [Cpd. No. 20, 6-chloro-4-(2,7-dimethyl-1-naphthalenyl)-5-hydroxy-2-methyl-3(2H)-pyridazinone]	–	–	–	–	80	100	80	100	–	–	–	–	–	–	–	–	–	–	–	–	Plant response rating (0 to 100 scale) ([3]; 31 g ai/ha): 0; Plant response rating (0 to 100 scale) ([3]; 62 g ai/ha): 0; Plant response rating (0 to 100 scale) ([3]; 125 g ai/ha): 92; Plant response rating (0 to 100 scale) ([3]; 250 g ai/ha): 99; Plant response rating (0 to 100 scale) ([4]; 31 g ai/ha): 0; Plant response rating (0 to 100 scale) ([4]; 62 g ai/ha): 60; Plant response rating (0 to 100 scale) ([4]; 125 g ai/ha): 95; Plant response rating (0 to 100 scale) ([4]; 250 g ai/ha): 100
Cc1ccc2ccc(Cl)cc2c1-c1c(O)c(Cl)nn(C)c1=O [Cpd. No. 22]	100	100	90	100	–	–	–	–	80	80	100	100	95	100	100	100	70	80	85	85	Plant response rating, Field Violet ([8]; 16 g ai/ha): 60; Plant response rating, Field Violet ([8]; 31 g ai/ha): 70; Plant response rating, Field Violet ([8]; 62 g ai/ha): 75; Plant response rating, Field Violet ([8]; 125 g ai/ha): 80; Plant response rating, Mustard, Wild ([9]; 16 g ai/ha): 75; Plant response rating, Mustard, Wild ([9]; 31 g ai/ha): 75; Plant response rating, Mustard, Wild ([9]; 62 g ai/ha): 100; Plant response rating, Mustard, Wild ([9]; 125 g ai/ha): 100; Plant response rating, Speedwell ([10]; 16 g ai/ha): 50; Plant response rating, Speedwell ([10]; 31 g ai/ha): 60; Plant response rating, Speedwell ([10]; 62 g ai/ha): 75; Plant response rating, Speedwell ([10]; 125 g ai/ha): 90
Cc1cc(Cl)c2ccccc2c1-c1c(O)c(Cl)nn(C)c1=O [Cpd. No. 65]	–	–	–	–	100	100	100	100	80	90	98	90	100	100	100	100	85	90	95	95	Plant response rating, Field Violet ([8]; 16 g ai/ha): 70; Plant response rating, Field Violet ([8]; 31 g ai/ha): 80; Plant response rating, Field Violet ([8]; 62 g ai/ha): 85; Plant response rating, Field Violet ([8]; 125 g ai/ha): 85; Plant response rating, Mustard, Wild ([9]; 16 g ai/ha): 98; Plant response rating, Mustard, Wild ([9]; 31 g ai/ha): 100; Plant response rating, Mustard, Wild ([9]; 62 g ai/ha): 100; Plant response rating, Mustard, Wild ([9]; 125 g ai/ha): 100; Plant response rating, Speedwell ([10]; 16 g ai/ha): 55; Plant response rating, Speedwell ([10]; 31 g ai/ha): 65; Plant response rating, Speedwell ([10]; 62 g ai/ha): 75; Plant response rating, Speedwell ([10]; 125 g ai/ha): 90
